Experimental data reported in patent US5300491A, “Treatment of protozoal infection” (priority 1992, dated 1994).

Key:
Cryptosporidium parvum = type: in vivo, Human
From the text: The patient was a child, weighing approximately 30 kg. For years, the patient had suffered from moderate diarrhea. Prior to being treated with zinc bacitracin, the patient's stool repeatedly tested positive for intestinal Cryptosporidia. […] The patient received sulfonamide and cefalexin for the influenza during the hiatus. The zinc bacitracin treatment resumed approximately one month later and continued for two weeks thereafter.
After the treatment period, it was observed that the drug was well-tolerated by the patient.

[1] = test system: histidine auxotrophs of Salmonella typhimurium; details: absence and presence of a rat liver activating system; cited from earlier work
[2] = cited from earlier work

Substance: Zinc bacitracin
- stool parasites over the course of the treatment period (Cryptosporidium parvum; child, 30,000 units thrice daily, 8 days and later two weeks): No stool parasites were detected
- tolerability (Cryptosporidium parvum; human, in vivo): well-tolerated
- stool test after end of treatment (Cryptosporidium parvum; one week after the final discontinuation of treatment): began to once again test positive for intestinal cryptosporidia
- mutagenic potential [1]: devoid of mutagenic potential
- absorption from the gut ([2]; rat, in vivo, po): not absorbed from the gut
- levels in the livers ([2]; rat, in vivo, po): No detectable levels
- oral toxicity ([2]; rats, sub-chronic and chronic, feed levels up to 1,000 ppm): non-toxic
